Results reported in patent publication US20020026053A1, “Novel 3-(substituted) -2- indolinones compounds and use thereof as inhibitors of protein kinase activity” (priority 1997, published 2002).

Assays:
[1] = system: FLK-1 receptor; assay: FLK-1 Assay (cellular/catalytic ELISA, VEGF-stimulated phosphotyrosine); type: cell-based; parameters: concentration or dose not given beside the values
How it was run: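 Receptor phosphotyrosine ELISA: Flk-1-expressing NIH3T3 C7#3 cells, starved overnight in 0.1% FBS medium, received compound (1:200 final dilution, 0.5% DMSO) for 2 h at 37 °C, then VEGF. Anti-FLK-1-captured receptor was probed with anti-phosphotyrosine UB40 and peroxidase/ABTS read-out, relative to cells without compound.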

[2] = system: PDGF-R; assay: PDGF-R Assay (cellular ELISA, U1242 cells); type: cell-based; parameters: concentration or dose not given beside the values
How it was run: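 Cellular ELISA for receptor autophosphorylation: after 2 hr test-compound treatment of serum-free U1242 cells at 37°C, ligand is added for 5–10 min, cells are lysed (HNTG) and receptor captured by specific antibody. Anti-phosphotyrosine plus secondary antibody with ABTS colour read at 410/630 nm, compared with compound-free control cells.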

| Compound | Flk Kinase % Inhibition (P.110) [1] [%] | PDGF Kinase % Inhibition (P.119) [2] [%] |
| --- | --- | --- |
| Cc1c(Br)cc(Br)c2c1C(=Cc1ccc(O)cc1)C(=O)N2 [10719/H07] | 2.4 | – |
| Cc1c(Br)cc(Br)c2c1C(=Cc1ccc(N(C)C)cc1)C(=O)N2 [10719/H08] | 11.6 | – |
| Cc1c(Br)cc(Br)c2c1C(=Cc1ccc(F)cc1Cl)C(=O)N2 [10719/H09] | 2.5 | – |
| Cc1c(Br)cc(Br)c2c1C(=Cc1cccc([N+](=O)[O-])c1)C(=O)N2 [10719/H10] | −0.7 | – |
| Cc1c(Br)cc(Br)c2c1C(=Cc1ccc(F)cc1C(F)(F)F)C(=O)N2 [10719/H11] | 12.3 | – |
| Cc1c(Br)cc(Br)c2c1C(=Cc1c(F)cc(F)cc1F)C(=O)N2 [10720/H02] | 9.7 | – |
| COc1cc(O)ccc1C=C1C(=O)Nc2c(Br)cc(Br)c(C)c21 [10720/H03] | 1.8 | – |
| N#Cc1ccccc1C=C1C(=O)Nc2ccc(CCCl)cc21 [10735/G07] | 17.6 | 12.6 |
| O=C1Nc2ccc(CCCl)cc2C1=Cc1c(F)cccc1F [10735/G08] | 10.9 | 9.8 |
| O=C1Nc2ccc(CCCl)cc2C1=Cc1cccc2ccccc12 [10735/G09] | 15.9 | 2.2 |
| O=C1Nc2ccc(CCCl)cc2C1=Cc1ccc(Cl)cc1Cl [10735/G10] | 6.8 | −8.8 |
| O=C1Nc2ccc(CCCl)cc2C1=Cc1ccc(-c2ccccc2)cc1 [10735/G11] | 10.1 | −5.3 |
| Cc1ccccc1C=C1C(=O)Nc2c(Br)cc(Br)c(C)c21 [10735/H02] | 14.5 | −4.7 |
| Cc1c(Br)cc(Br)c2c1C(=Cc1ccc(F)c(F)c1)C(=O)N2 [10735/H03] | 7.4 | 1.2 |
| Cc1c(Br)cc(Br)c2c1C(=Cc1cc(F)cc(F)c1)C(=O)N2 [10735/H04] | 12.8 | 1.2 |
| Cc1c(Br)cc(Br)c2c1C(=Cc1cccc(C(F)(F)F)c1)C(=O)N2 [10735/H05] | 29.5 | 9.1 |
| Cc1c(Br)cc(Br)c2c1C(=Cc1cc(C(F)(F)F)cc(C(F)(F)F)c1)C(=O)N2 [10735/H06] | 25.9 | 6.4 |
| Cc1c(Br)cc(Br)c2c1C(=Cc1ccccc1C#N)C(=O)N2 [10735/H07] | 21.4 | −0.9 |
| Cc1c(Br)cc(Br)c2c1C(=Cc1c(F)cccc1F)C(=O)N2 [10735/H08] | 29.1 | −2.6 |
| Cc1c(Br)cc(Br)c2c1C(=Cc1cccc3ccccc13)C(=O)N2 [10735/H09] | 20.6 | 6.4 |
| Cc1c(Br)cc(Br)c2c1C(=Cc1ccc(Cl)cc1Cl)C(=O)N2 [10735/H10] | 24.0 | −0.2 |

| Compound | Flk Kinase % Inhibition (P.110) [1] [%] | PDGF Kinase % Inhibition (P.119) [2] [%] |
| --- | --- | --- |
| Cc1c(Br)cc(Br)c2c1C(=Cc1ccc(-c3ccccc3)cc1)C(=O)N2 [10735/H11] | 28.3 | 1.9 |
| O=C1Nc2c(Br)cc(Br)cc2C1=Cc1ccc(Cl)cc1 [10736/A02] | −6.0 | 24.2 |
| O=C1Nc2c(Br)cc(Br)cc2C1=Cc1ccccc1C(F)(F)F [10736/A03] | 5.7 | 31.6 |
| Cc1cccc(C=C2C(=O)Nc3c(Br)cc(Br)cc32)c1 [10736/A04] | −13.0 | 13.2 |
| Cc1ccc(C=C2C(=O)Nc3c(Br)cc(Br)cc32)cc1 [10736/A05] | −19.4 | 8.4 |
| O=C1Nc2c(Br)cc(Br)cc2C1=Cc1cccc(Cl)c1 [10736/A06] | −18.2 | 32.1 |
| O=C1Nc2c(Br)cc(Br)cc2C1=Cc1cccc(F)c1 [10736/A07] | −12.6 | 8.4 |
| O=C1Nc2c(Br)cc(Br)cc2C1=Cc1ccccc1F [10736/A08] | −13.4 | 11.0 |
| CCc1ccc(C=C2C(=O)Nc3c(Br)cc(Br)cc32)cc1 [10736/A09] | −8.7 | −6.5 |
| COc1cccc(C=C2C(=O)Nc3c(Br)cc(Br)cc32)c1 [10736/A10] | −11.0 | 5.8 |
| O=C1Nc2c(Br)cc(Br)cc2C1=Cc1ccccc1Cl [10736/A11] | −12.4 | −5.6 |
| O=C1Nc2ccc(I)cc2C1=Cc1ccc(Cl)cc1 [10736/B02] | 1.0 | −10.0 |
| O=C1Nc2ccc(I)cc2C1=Cc1ccccc1C(F)(F)F [10736/B03] | 11.3 | 63.2 |
| Cc1cccc(C=C2C(=O)Nc3ccc(I)cc32)c1 [10736/B04] | 3.0 | 11.9 |
| Cc1ccc(C=C2C(=O)Nc3ccc(I)cc32)cc1 [10736/B05] | −0.5 | −3.0 |
| O=C1Nc2ccc(I)cc2C1=Cc1cccc(Cl)c1 [10736/B06] | 3.8 | 20.7 |
| O=C1Nc2ccc(I)cc2C1=Cc1cccc(F)c1 [10736/B07] | 4.0 | 20.7 |
| O=C1Nc2ccc(I)cc2C1=Cc1ccccc1F [10736/B08] | 5.0 | −0.4 |
| CCc1ccc(C=C2C(=O)Nc3ccc(I)cc32)cc1 [10736/B09] | 8.0 | 7.1 |
| COc1cccc(C=C2C(=O)Nc3ccc(I)cc32)c1 [10736/B10] | 2.5 | 1.8 |
| O=C1Nc2ccc(I)cc2C1=Cc1ccccc1Cl [10736/B11] | 7.3 | −15.3 |

| Compound | Flk Kinase % Inhibition (P.110) [1] [%] | PDGF Kinase % Inhibition (P.119) [2] [%] |
| --- | --- | --- |
| Cc1c(Br)ccc2c1C(=Cc1ccc(Cl)cc1)C(=O)N2 [10736/C02] | −0.9 | 2.7 |
| Cc1c(Br)ccc2c1C(=Cc1ccccc1C(F)(F)F)C(=O)N2 [10736/C03] | 6.5 | 25.5 |
| Cc1cccc(C=C2C(=O)Nc3ccc(Br)c(C)c32)c1 [10736/C04] | 2.8 | 8.4 |
| Cc1ccc(C=C2C(=O)Nc3ccc(Br)c(C)c32)cc1 [10736/C05] | 4.6 | 16.7 |
| Cc1c(Br)ccc2c1C(=Cc1cccc(Cl)c1)C(=O)N2 [10736/C06] | 6.2 | 26.4 |
| Cc1c(Br)ccc2c1C(=Cc1cccc(F)c1)C(=O)N2 [10736/C07] | 4.4 | 14.1 |
| Cc1c(Br)ccc2c1C(=Cc1ccccc1F)C(=O)N2 [10736/C08] | 3.1 | 1.4 |
| CCc1ccc(C=C2C(=O)Nc3ccc(Br)c(C)c32)cc1 [10736/C09] | 11.2 | −9.6 |
| COc1cccc(C=C2C(=O)Nc3ccc(Br)c(C)c32)c1 [10736/C10] | 1.1 | 1.4 |
| Cc1c(Br)ccc2c1C(=Cc1ccccc1Cl)C(=O)N2 [10736/C11] | 7.2 | 0.5 |
| CNS(=O)(=O)c1ccc2c(c1)C(=Cc1ccc(Cl)cc1)C(=O)N2 [10736/D02] | 5.8 | −10.5 |
| CNS(=O)(=O)c1ccc2c(c1)C(=Cc1ccccc1C(F)(F)F)C(=O)N2 [10736/D03] | 5.4 | 14.5 |
| CNS(=O)(=O)c1ccc2c(c1)C(=Cc1cccc(C)c1)C(=O)N2 [10736/D04] | 4.3 | 15.0 |
| CNS(=O)(=O)c1ccc2c(c1)C(=Cc1ccc(C)cc1)C(=O)N2 [10736/D05] | 15.2 | 3.6 |
| CNS(=O)(=O)c1ccc2c(c1)C(=Cc1cccc(Cl)c1)C(=O)N2 [10736/D06] | 12.2 | 19.8 |
| CNS(=O)(=O)c1ccc2c(c1)C(=Cc1cccc(F)c1)C(=O)N2 [10736/D07] | 7.0 | 4.4 |
| CNS(=O)(=O)c1ccc2c(c1)C(=Cc1ccccc1F)C(=O)N2 [10736/D08] | 11.0 | 1.8 |
| CCc1ccc(C=C2C(=O)Nc3ccc(S(=O)(=O)NC)cc32)cc1 [10736/D09] | 8.5 | −6.5 |
| CNS(=O)(=O)c1ccc2c(c1)C(=Cc1cccc(OC)c1)C(=O)N2 [10736/D10] | −11.6 | −2.1 |
| CNS(=O)(=O)c1ccc2c(c1)C(=Cc1ccccc1Cl)C(=O)N2 [10736/D11] | 12.5 | −4.3 |
| O=C1Nc2ccc(S(=O)(=O)Nc3ccc(C(F)(F)F)cc3)cc2C1=Cc1ccc(Cl)cc1 [10736/E02] | 8.2 | 21.5 |
